# US10376520B2, “Methods for the treatment of cardiovascular disorders” (Galapagos NV, priority 2015, dated 2019)
# Test system: RA patients
# Assay: Total cholesterol determination, Study 1 (RA patients with inadequate response to methotrexate, add-on to MTX)
# Format: in vivo, human
# Experimental: Double-blind, placebo-controlled add on study in subjects with moderately to severely active RA who have an inadequate response to methotrexate (MTX) (oral or parenteral).
# 595 subjects randomized to one of 6 dose regimens of Compound 1 (dosed as a [Compound 1:HCl:3H2O]) (3 dose levels administered either once or twice daily) or placebo on top of each subject's stable dose of MTX.
# Compound 1 (dosed as a [Compound 1:HCl:3H2O]) is dosed for twelve weeks once daily (q.d.) (50 mg, 100 mg or 200 mg) or twice daily (b.i.d.) (25 mg, 50 mg or 100 mg); or placebo.
# At Week 12, the subjects on placebo who have not achieved 20% improvement in swollen joint count (SJC66) and tender joint count (TJC68) are re-randomized automatically to receive Compound 1 (dosed as a [Compound 1:HCl:3H2O]) either at 100 mg q.d. or 50 mg b.i.d. doses in a blinded fashion; subjects on 50 mg q.d. who have not achieved 20% improvement in SJC66 and TJC68 will be assigned to 100 mg q.d. and subjects on 25 mg b.i.d. that have not achieved a 20% improvement in SJC66 and TJC68 will be assigned to 50 mg b.i.d. Subjects who switch treatment at week 12 are handled as if they discontinued at week 12 for the purpose of statistical analysis, whereas subjects in the other groups will maintain their randomized treatment until Week 24.
# This method is based on the determination of Δ^4 cholestenone after enzymatic cleavage of the cholesterol ester by cholesterol esterase, conversion of cholesterol by cholesterol oxidase, and subsequent measurement by the Trinder reaction of the hydrogen peroxide formed (Allain et al., 1974).
# Cholesterol esters are cleaved by the action of cholesterol esterase to yield free cholesterol and fatty acids. Cholesterol oxidase then catalyzes the oxidation of cholesterol to cholest-4-en-3-one and hydrogen peroxide. In the presence of peroxidase, the hydrogen peroxide formed effects the oxidative coupling of phenol and 4-aminophenazone to form a red quinone-imine dye. The color intensity of the dye formed is directly proportional to the cholesterol concentration. It is determined by measuring the increase in absorbance.
# Human serum and plasma samples cholesterol determination was done on a Roche/Hitachi Cobas c 701/702 system which automatically calculate the analyte concentration of each sample.
smiles,measurement,setting,value
"O=C(Nc1nc2cccc(-c3ccc(CN4CCS(=O)(=O)CC4)cc3)n2n1)C1CC1 [Compound 1, cyclopropanecarboxylic acid {5-[4-(1,1-dioxo-thiomorpholin-4-ylmethyl)-phenyl]-[1,2,4]triazolo[1,5-a]pyridin-2yl}-amide]",[total cholesterol] Mean percentage CFB - 24 weeks results,"continued 25 mg b.i.d (N = 69), week 12",6.38%
same,[total cholesterol] Mean percentage CFB - 24 weeks results,"continued 25 mg b.i.d (N = 69), week 16",5.51%
same,[total cholesterol] Mean percentage CFB - 24 weeks results,"continued 25 mg b.i.d (N = 69), week 20",6.95%
same,[total cholesterol] Mean percentage CFB - 24 weeks results,"continued 25 mg b.i.d (N = 69), week 24",6.53%
same,[total cholesterol] Mean percentage CFB - 24 weeks results,"continued 50 mg b.i.d. (N = 85), week 1",3.39%
same,[total cholesterol] Mean percentage CFB - 24 weeks results,"continued 50 mg b.i.d. (N = 85), week 2",3.87%
same,[total cholesterol] Mean percentage CFB - 24 weeks results,"continued 50 mg b.i.d. (N = 85), week 4",7.04%
same,[total cholesterol] Mean percentage CFB - 24 weeks results,"continued 50 mg b.i.d. (N = 85), week 8",5.63%
same,[total cholesterol] Mean percentage CFB - 24 weeks results,"continued 50 mg b.i.d. (N = 85), week 12",5.67%
same,[total cholesterol] Mean percentage CFB - 24 weeks results,"continued 50 mg b.i.d. (N = 85), week 16",6.23%
same,[total cholesterol] Mean percentage CFB - 24 weeks results,"continued 50 mg b.i.d. (N = 85), week 20",7.91%
same,[total cholesterol] Mean percentage CFB - 24 weeks results,"continued 50 mg b.i.d. (N = 85), week 24",7.97%
same,[total cholesterol] Mean percentage CFB - 24 weeks results,"continued 50 mg q.d. (N = 63), week 1",0.77%
same,[total cholesterol] Mean percentage CFB - 24 weeks results,"continued 50 mg q.d. (N = 63), week 2",−0.22%
same,[total cholesterol] Mean percentage CFB - 24 weeks results,"continued 50 mg q.d. (N = 63), week 4",1.08%
same,[total cholesterol] Mean percentage CFB - 24 weeks results,"continued 50 mg q.d. (N = 63), week 8",3.49%
same,[total cholesterol] Mean percentage CFB - 24 weeks results,"continued 50 mg q.d. (N = 63), week 12",5.58%
same,[total cholesterol] Mean percentage CFB - 24 weeks results,"continued 50 mg q.d. (N = 63), week 16",5.15%
same,[total cholesterol] Mean percentage CFB - 24 weeks results,"continued 50 mg q.d. (N = 63), week 20",4.68%
same,[total cholesterol] Mean percentage CFB - 24 weeks results,"continued 50 mg q.d. (N = 63), week 24",6.75%
same,[total cholesterol] Mean percentage CFB - 24 weeks results,"continued 100 mg b.i.d. (N = 84), week 1",6.85%
same,[total cholesterol] Mean percentage CFB - 24 weeks results,"continued 100 mg b.i.d. (N = 84), week 2",8.38%
same,[total cholesterol] Mean percentage CFB - 24 weeks results,"continued 100 mg b.i.d. (N = 84), week 4",9.86%
same,[total cholesterol] Mean percentage CFB - 24 weeks results,"continued 100 mg b.i.d. (N = 84), week 8",14.79%
same,[total cholesterol] Mean percentage CFB - 24 weeks results,"continued 100 mg b.i.d. (N = 84), week 12",14.98%
same,[total cholesterol] Mean percentage CFB - 24 weeks results,"continued 100 mg b.i.d. (N = 84), week 16",12.82%
same,[total cholesterol] Mean percentage CFB - 24 weeks results,"continued 100 mg b.i.d. (N = 84), week 20",12.71%
same,[total cholesterol] Mean percentage CFB - 24 weeks results,"continued 100 mg b.i.d. (N = 84), week 24",15.39%
same,[total cholesterol] Mean percentage CFB - 24 weeks results,"continued 100 mg q.d. (N = 85), week 1",3.65%
same,[total cholesterol] Mean percentage CFB - 24 weeks results,"continued 100 mg q.d. (N = 85), week 2",2.32%
same,[total cholesterol] Mean percentage CFB - 24 weeks results,"continued 100 mg q.d. (N = 85), week 4",4.86%
same,[total cholesterol] Mean percentage CFB - 24 weeks results,"continued 100 mg q.d. (N = 85), week 8",3.79%
same,[total cholesterol] Mean percentage CFB - 24 weeks results,"continued 100 mg q.d. (N = 85), week 12",5.39%
same,[total cholesterol] Mean percentage CFB - 24 weeks results,"continued 100 mg q.d. (N = 85), week 16",1.87%
same,[total cholesterol] Mean percentage CFB - 24 weeks results,"continued 100 mg q.d. (N = 85), week 20",3.28%
same,[total cholesterol] Mean percentage CFB - 24 weeks results,"continued 100 mg q.d. (N = 85), week 24",5.05%
same,[total cholesterol] Mean percentage CFB - 24 weeks results,"continued 200 mg q.d. (N = 86), week 1",5.53%
same,[total cholesterol] Mean percentage CFB - 24 weeks results,"continued 200 mg q.d. (N = 86), week 2",9.86%
same,[total cholesterol] Mean percentage CFB - 24 weeks results,"continued 200 mg q.d. (N = 86), week 4",8.99%
same,[total cholesterol] Mean percentage CFB - 24 weeks results,"continued 200 mg q.d. (N = 86), week 8",6.72%
same,[total cholesterol] Mean percentage CFB - 24 weeks results,"continued 200 mg q.d. (N = 86), week 12",10.16%
same,[total cholesterol] Mean percentage CFB - 24 weeks results,"continued 200 mg q.d. (N = 86), week 16",9.19%
same,[total cholesterol] Mean percentage CFB - 24 weeks results,"continued 200 mg q.d. (N = 86), week 20",8.00%
same,[total cholesterol] Mean percentage CFB - 24 weeks results,"continued 200 mg q.d. (N = 86), week 24",9.94%
same,[total cholesterol] Mean percentage CFB - 24 weeks results,"from 25 mg b.i.d. to 50 mg b.i.d at 12 weeks (N = 17), week 1",0.55%
same,[total cholesterol] Mean percentage CFB - 24 weeks results,"from 25 mg b.i.d. to 50 mg b.i.d at 12 weeks (N = 17), week 2",2.37%
same,[total cholesterol] Mean percentage CFB - 24 weeks results,"from 25 mg b.i.d. to 50 mg b.i.d at 12 weeks (N = 17), week 4",−2.60%
same,[total cholesterol] Mean percentage CFB - 24 weeks results,"from 25 mg b.i.d. to 50 mg b.i.d at 12 weeks (N = 17), week 8",−2.81%
same,[total cholesterol] Mean percentage CFB - 24 weeks results,"from 25 mg b.i.d. to 50 mg b.i.d at 12 weeks (N = 17), week 12",0.30%
same,[total cholesterol] Mean percentage CFB - 24 weeks results,"from 25 mg b.i.d. to 50 mg b.i.d at 12 weeks (N = 17), week 16",4.23%
same,[total cholesterol] Mean percentage CFB - 24 weeks results,"from 25 mg b.i.d. to 50 mg b.i.d at 12 weeks (N = 17), week 24",2.66%
same,[total cholesterol] Mean percentage CFB - 24 weeks results,"from 50 mg q.d. to 100 mg q.d. at 12 weeks (N = 19), week 1",1.24%
same,[total cholesterol] Mean percentage CFB - 24 weeks results,"from 50 mg q.d. to 100 mg q.d. at 12 weeks (N = 19), week 2",4.36%
same,[total cholesterol] Mean percentage CFB - 24 weeks results,"from 50 mg q.d. to 100 mg q.d. at 12 weeks (N = 19), week 4",1.67%
same,[total cholesterol] Mean percentage CFB - 24 weeks results,"from 50 mg q.d. to 100 mg q.d. at 12 weeks (N = 19), week 8",2.29%
same,[total cholesterol] Mean percentage CFB - 24 weeks results,"from 50 mg q.d. to 100 mg q.d. at 12 weeks (N = 19), week 12",2.39%
same,[total cholesterol] Mean percentage CFB - 24 weeks results,"from 50 mg q.d. to 100 mg q.d. at 12 weeks (N = 19), week 16",7.55%
same,[total cholesterol] Mean percentage CFB - 24 weeks results,"from 50 mg q.d. to 100 mg q.d. at 12 weeks (N = 19), week 20",6.69%
same,[total cholesterol] Mean percentage CFB - 24 weeks results,"from 50 mg q.d. to 100 mg q.d. at 12 weeks (N = 19), week 24",5.15%
same,[total cholesterol] Mean percentage CFB - 24 weeks results,"placebo switched to 50 mg b.i.d at week 12 (N = 15), week 16",3.97%
same,[total cholesterol] Mean percentage CFB - 24 weeks results,"placebo switched to 50 mg b.i.d at week 12 (N = 15), week 20",5.80%
same,[total cholesterol] Mean percentage CFB - 24 weeks results,"placebo switched to 50 mg b.i.d at week 12 (N = 15), week 24",3.22%
